Source: patent US9499550B2 (BRISTOL-MYERS SQUIBB COMPANY, priority 2012, dated 2016)
Read-outs that look alike come from different tables or passages of the source.

What was measured:
[1] = system: HCV genotype 1a (H77 strain) replicon in HUH-7 cells; experiment: HCV replicon luciferase reporter assay, genotype 1a; type: cell-based; conditions: Hepatitis C virus, Huh-7, 72 h, 3 days incubation
How it was run: (§1)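 Replicon inhibition for both genotypes was measured as Renilla luciferase signal (EnduRen, 7.5 μM final, 2 h) after 3-day, 37° C exposure of replicon-bearing HUH-7 cells in 4% FCS DMEM, 0.5% DMSO. The 1b construct carries S1179I; the 1a H77 construct carries P1496L and S2204I. Twenty-point, 3-fold dilutions were fitted four-parametrically for EC50, and CC50 was taken from multiplexed Cell Titer-Blue.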

[2] = system: HCV genotype 1b (Con1) replicon in HUH-7 cells; experiment: HCV replicon luciferase reporter assay, genotype 1b; type: cell-based; conditions: Hepatitis C virus, Huh-7, 72 h, 3 days incubation
How it was run: as §1

[3] = HCV genotype 1a replicon luciferase, read-out: LE_1a (EC50, range)
[4] = HCV genotype 1b replicon luciferase, read-out: LE_1b (EC50, range)
[5] = HCV genotype 1a replicon luciferase assay, range class, read-out: LE_1a (EC50, range)
[6] = HCV genotype 1b replicon luciferase assay, range class, read-out: LE_1b (EC50, range)

Structure (SMILES)	EC50 [1, 3] [nM]	EC50 [2, 4] [nM]	EC50 [1, 5] [nM]	EC50 [2, 6] [nM]	further results
COc1cccc2c(O[C@@H]3C[C@H]4C(=O)N[C@]5(C(=O)NS(=O)(=O)C6(CF)CC6)C[C@H]5/C=C\CC[C@@H](C)C[C@@H](C)[C@H](NC(=O)OC(C)(C)C(F)(F)F)C(=O)N4C3)nccc12 [Compound 3040]					EC50 ([1]; GETYPE1A, HCV genotype 1a replicon luciferase assay, range class, read-out: LE_1a (EC50, range)): < 5.46 nM; EC50 ([2]; GETYPE1B, HCV genotype 1b replicon luciferase assay, range class, read-out: LE_1b (EC50, range)): < 5.46 nM
COc1ccc2c(O[C@@H]3C[C@H]4C(=O)N[C@]5(C(=O)NS(=O)(=O)C6CC6)C[C@H]5/C=C\CC[C@H](C)C[C@@H](C)[C@H](NC(=O)OC(C)(C)C)C(=O)N4C3)ncnc2c1 [Compound 4033, tert-butyl (2R,6S,7R,9S,13aS,14aR,16aS,Z)-14a-(cyclopropylsulfonylcarbamoyl)-2-(7-methoxyquinazolin-4-yloxy)-7,9-dimethyl-5,16-dioxo-1,2,3,5,6,7,8,9,10,11,13a,14,14a,15,16,16a-hexadecahydrocyclopropa[e]pyrrolo[1,2-a][1,4]diazacyclopentadecin-6-ylcarbamate]	< 5.46	< 5.46			
COc1ccc2c(O[C@@H]3C[C@H]4C(=O)N[C@]5(C(=O)NS(=O)(=O)C6(C)CC6)C[C@H]5/C=C\CC[C@@H](C)C[C@@H](C)[C@H](NC(=O)OC(C)(C)C(F)(F)F)C(=O)N4C3)nc(N3CCOCC3)cc2c1 [Compound 3095, 1,1,1-trifluoro-2-methylpropan-2-yl((2R,6S,7R,9R,13aS,14aR,16aS,Z)-2-((6-methoxy-3-morpholinoisoquinolin-1-yl)oxy)-7,9-dimethyl-14a-(((1-methylcyclopropyl)sulfonyl)carbamoyl)-5,16-dioxo-1,2,3,5,6,7,8,9,10,11,13a,14,14a,15,16,16a-hexadecahydrocyclopropa[e]pyrrolo[1,2-a][1,4]diazacyclopentadecin-6-yl)carbamate]			< 5.46	< 5.46	
CC[C@@H]1C[C@H](C)CC/C=C\[C@@H]2C[C@@]2(C(=O)NS(=O)(=O)C2(C)CC2)NC(=O)[C@@H]2C[C@@H](Oc3nc(OC)cc4ccccc34)CN2C(=O)[C@H]1NC(=O)OC(C)(C)C(F)(F)F [Compound 6007, 1,1,1-trifluoro-2-methylpropan-2-yl((2R,6S,7R,9R,13aS,14aR,16aS,Z)-7-ethyl-2-((3-methoxyisoquinolin-1-yl)oxy)-9-methyl-14a-(((1-methylcyclopropyl)sulfonyl)carbamoyl)-5,16-dioxo-1,2,3,5,6,7,8,9,10,11,13a,14,14a,15,16,16a-hexadecahydrocyclopropa[e]pyrrolo[1,2-a][1,4]diazacyclopentadecin-6-yl)carbamate]	< 5.46	< 5.46			
COc1cc2ccnc(O[C@@H]3C[C@H]4C(=O)N[C@]5(C(=O)NS(=O)(=O)C6(CF)CC6)C[C@H]5/C=C\CC[C@@H](C)C[C@@H](C)[C@H](N)C(=O)N4C3)c2cc1F [Compound 4235, (2R,6S,7R,9R,13aS,14aR,16aS,Z)-6-amino-2-(7-fluoro-6-methoxyisoquinolin-1-yloxy)-N-(1-(fluoromethyl)cyclopropylsulfonyl)-7,9-dimethyl-5,16-dioxo-1,2,3,5,6,7,8,9,10,11,13a,14,14a,15,16,16a-hexadecahydrocyclopropa[e]pyrrolo[1,2-a][1,4]diazacyclopentadecine-14a-carboxamide]	4.82 to 103	4.82 to 103			
CCCOc1cc2c(Cl)cccc2c(O[C@@H]2C[C@H]3C(=O)N[C@]4(C(=O)NS(=O)(=O)C5CC5)C[C@H]4/C=C\CC[C@@H](C)C[C@@H](C)[C@H](NC(=O)OC(C)(C)C(F)(F)F)C(=O)N3C2)n1 [Compound 1084, 1,1,1-trifluoro-2-methylpropan-2-yl((2R,6S,7R,9R,13aS,14aR,16aS,Z)-2-((5-chloro-3-propoxyisoquinolin-1-yl)oxy)-14a-((cyclopropylsulfonyl)carbamoyl)-7,9-dimethyl-5,16-dioxo-1,2,3,5,6,7,8,9,10,11,13a,14,14a,15,16,16a-hexadecahydrocyclopropa[e]pyrrolo[1,2-a][1,4]diazacyclopentadecin-6-yl)carbamate]			< 5.46	< 5.46	
CC[C@@H]1C[C@H](C)CC/C=C\[C@@H]2C[C@@]2(C(=O)NS(=O)(=O)C2(C)CC2)NC(=O)[C@@H]2C[C@@H](Oc3cc4nc(OC)c(C(F)(F)F)nc4cc3OC)CN2C(=O)[C@H]1NC(=O)OC(C)(C)C [Compound 4365, tert-butyl ((2R,6S,7R,9R,13aS,14aR,16aS,Z)-2-((3,7-dimethoxy-2-(trifluoromethyl)quinoxalin-6-yl)oxy)-7-ethyl-9-methyl-14a-(((1-methylcyclopropyl)sulfonyl)carbamoyl)-5,16-dioxo-1,2,3,5,6,7,8,9,10,11,13a,14,14a,15,16,16a-hexadecahydrocyclopropa[e]pyrrolo[1,2-a][1,4]diazacyclopentadecin-6-yl)carbamate]	5.01 to 35	5.01 to 35			
CCCOc1cnc(O[C@@H]2C[C@H]3C(=O)N[C@]4(C(=O)NS(=O)(=O)C5(C)CC5)C[C@H]4/C=C\CC[C@H](C)C[C@@H](C)[C@H](NC(=O)O[C@H](C)C(F)(F)F)C(=O)N3C2)c2ccccc12 [Compound 5084, (R)-1,1,1-trifluoropropan-2-yl ((2R,6S,7R,9S,13aS,14aR,16aS,Z)-7,9-dimethyl-14a-(((1-methylcyclopropyl)sulfonyl)carbamoyl)-5,16-dioxo-2-((4-propoxyisoquinolin-1-yl)oxy)-1,2,3,5,6,7,8,9,10,11,13a,14,14a,15,16,16a-hexadecahydrocyclopropa[e]pyrrolo[1,2-a][1,4]diazacyclopentadecin-6-yl)carbamate]	> 87.4	> 87.4			EC50 ([1]; HCV genotype 1a replicon luciferase, read-out: LE_1a (EC50)): 520 nM; EC50 ([2]; HCV genotype 1b replicon luciferase, read-out: LE_1b (EC50)): 131 nM
CC[C@@H]1C[C@H](C)CC/C=C\[C@@H]2C[C@@]2(C(=O)NS(=O)(=O)C2(C)CC2)NC(=O)[C@@H]2C[C@@H](Oc3ncc(OC)c4cc(OC)ccc34)CN2C(=O)[C@H]1NC(=O)OC(C)(C)C(F)(F)F [Compound 4197]					EC50 ([1]; GETYPE1A, HCV genotype 1a replicon luciferase, read-out: LE_1a (EC50, range)): < 5.46 nM; EC50 ([2]; GETYPE1B, HCV genotype 1b replicon luciferase, read-out: LE_1b (EC50, range)): < 5.46 nM
C[C@@H]1CCC(O)C[C@@H]2C[C@@]2(C(=O)NS(=O)(=O)C2(C)CC2)NC(=O)[C@@H]2C[C@@H](Oc3ncc(OC4CC4)c4ccccc34)CN2C(=O)[C@@H](NC(=O)OC(C)(C)C(F)(F)F)[C@H](C)C1 (stereo partly drawn) [Compound 2001, 1,1,1-trifluoro-2-methylpropan-2-yl ((2R,6S,7R,9R,13aS,14aR,16aS)-2-((4-cyclopropoxyisoquinolin-1-yl)oxy)-12-hydroxy-7,9-dimethyl-14a-(((1-methylcyclopropyl)sulfonyl)carbamoyl)-5,16-dioxooctadecahydrocyclopropa[e]pyrrolo[1,2-a][1,4]diazacyclopentadecin-6-yl)carbamate]			4.82 to 103	4.82 to 103	
[2H]C([2H])([2H])C(OC(=O)N[C@@H]1C(=O)N2C[C@H](Oc3nnc(OCC)c4ccccc34)C[C@H]2C(=O)N[C@]2(C(=O)NS(=O)(=O)C3CC3)C[C@H]2/C=C\CC[C@H](C)C[C@H]1C)(C([2H])([2H])[2H])C(F)(F)F [Compound 5038]	4.82 to 103	4.82 to 103			
COc1ccc2c(O[C@@H]3C[C@H]4C(=O)N[C@]5(C(=O)NS(=O)(=O)C6(C)CC6)C[C@H]5/C=C\CC[C@H](C)C[C@@H](C)[C@H](NC(=O)OC(C)(C)C(C)(F)F)C(=O)N4C3)nc(-c3ccc(OC(C)C)cn3)cc2c1 [Compound 5476, 3,3-difluoro-2-methylbutan-2-yl((2R,6S,7R,9S,13aS,14aR,16aS,Z)-2-((3-(5-isopropoxypyridin-2-yl)-6-methoxyisoquinolin-1-yl)oxy)-7,9-dimethyl-14a-(((1-methylcyclopropyl)sulfonyl)carbamoyl)-5,16-dioxo-1,2,3,5,6,7,8,9,10,11,13a,14,14a,15,16,16a-hexadecahydrocyclopropa[e]pyrrolo[1,2-a][1,4]diazacyclopentadecin-6-yl)carbamate]	5.01 to 35	1.01 to 5			
C[C@@H]1CC/C=C\[C@@H]2C[C@@]2(C(=O)NS(=O)(=O)C2(C)CC2)NC(=O)[C@@H]2C[C@@H](Oc3nc(OCC(F)F)cc4c(Cl)cccc34)CN2C(=O)[C@@H](NC(=O)O[C@H](C)C(F)(F)F)[C@H](C)C1 [Compound 1108, (R)-1,1,1-trifluoropropan-2-yl ((2R,6S,7R,9R,13aS,14aR,16aS,Z)-2-((5-chloro-3-(2,2-difluoroethoxyl)isoquinolin-1-yl)oxy)-7,9-dimethyl-14a-(((1-methylcyclopropyl)sulfonyl)carbamoyl)-5,16-dioxo-1,2,3,5,6,7,8,9,10,11,13a,14,14a,15,16,16a-hexadecahydrocyclopropa[e]pyrrolo[1,2-a][1,4]diazacyclopentadecin-6-yl)carbamate]			< 5.46	< 5.46	
